Reference: paper PMC4275348 (Molecular microbiology, 2014)
Changes are numbered by the printed parent chain.

Assays:
[1] = molecular target: T1, LuxN^H210N (Vibrio campbellii, UniProt A7MRY4, H210N); test: Bioluminescence of V. harveyi XK006 carrying luxN H210N; format: cell-based, Vibrio harveyi; settings: dose-dependent light production
T1 sequence (A7MRY4 1-849 H210N): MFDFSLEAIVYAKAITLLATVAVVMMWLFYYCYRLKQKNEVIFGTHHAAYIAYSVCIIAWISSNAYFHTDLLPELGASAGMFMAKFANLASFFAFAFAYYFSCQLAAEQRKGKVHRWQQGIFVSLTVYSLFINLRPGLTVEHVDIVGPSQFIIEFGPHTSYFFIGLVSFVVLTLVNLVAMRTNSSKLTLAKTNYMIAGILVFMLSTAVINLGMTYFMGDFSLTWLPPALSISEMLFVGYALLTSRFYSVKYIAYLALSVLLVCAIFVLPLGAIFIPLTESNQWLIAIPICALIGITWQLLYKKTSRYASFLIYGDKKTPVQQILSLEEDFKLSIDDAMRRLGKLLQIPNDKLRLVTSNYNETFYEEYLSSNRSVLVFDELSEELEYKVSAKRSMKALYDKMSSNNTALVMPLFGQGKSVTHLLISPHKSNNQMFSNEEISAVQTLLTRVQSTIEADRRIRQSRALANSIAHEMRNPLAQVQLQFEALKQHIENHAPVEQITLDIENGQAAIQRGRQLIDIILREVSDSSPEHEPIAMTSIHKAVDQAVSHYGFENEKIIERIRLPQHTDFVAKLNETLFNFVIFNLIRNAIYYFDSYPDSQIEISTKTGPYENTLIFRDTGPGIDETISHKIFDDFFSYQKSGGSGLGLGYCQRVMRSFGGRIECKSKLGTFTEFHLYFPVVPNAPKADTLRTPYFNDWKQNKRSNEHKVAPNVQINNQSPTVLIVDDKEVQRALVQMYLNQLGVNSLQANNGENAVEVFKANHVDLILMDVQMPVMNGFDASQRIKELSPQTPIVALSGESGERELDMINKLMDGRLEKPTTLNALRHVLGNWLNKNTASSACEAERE

[2] = molecular target: T2, luxN^S184I/S230P (Vibrio campbellii, UniProt A7MRY4, S184I/S230P); test: Bioluminescence of V. harveyi XK006 carrying luxN S184I/S230P; format: cell-based, Vibrio harveyi
T2 sequence (A7MRY4 1-849 S184I/S230P): T1 sequence (A7MRY4 1-849 H210N) with S184I, N210H, S230P

[3] = molecular target: T3, luxN^T159I/Y193K (Vibrio campbellii, UniProt A7MRY4, N193K/T159I); test: Bioluminescence of V. harveyi XK006 carrying luxN T159I/Y193K; format: cell-based, Vibrio harveyi
T3 sequence (A7MRY4 1-849 T159I/N193K): T1 sequence (A7MRY4 1-849 H210N) with T159I, N193K, N210H

[4] = tested on: Kin^off LuxN mutants; test: Bioluminescence of V. harveyi XK847 harboring Kin^off luxN alleles; format: cell-based, Vibrio harveyi
[5] = molecular target: LuxN (Vibrio campbellii, UniProt A7MRY4); settings: 1 μM AHL; V. harveyi TL25; versus DMSO
[6] = molecular target: WT LuxN (Vibrio campbellii, UniProt A7MRY4); settings: 100 nM AI-1; XK847

C[C@@H](O)CC(=O)N[C@H]1CCOC1=O [3OH-C4 HSL, N-((R)-3-hydroxybutanoyl)-L-homoserine lactone]
less sensitivity than for the other two C4 AHLs (3O-C4 HSL, C4 HSL) [1]: 10 fold | response (dose-dependent light production) [2]: most potent agonist | response (dose-dependent light production) [3]: most potent agonist | light production / detection [4]: produced maximal light | increase in light production [5]: over 1000 fold | increase in light production [6]: 1000 fold
